In ChEMBL document CHEMBL1201862, “PubChem BioAssay data set” (2004):
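Following 48 hours of exposure in 96-well plates, responses at five concentrations were used to interpolate endpoints linearly. Abbreviation: GI50, concentration required for 50% inhibition of growth.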 Calls of active or inactive are those of the source. Rule as the data show it: active = GI50 up to about 1.1 µM and inactive = higher.

Assays:
Test in all cases: inhibition of tumour cell growth, NCI panel, 48 h
Malme-3M = tested on: Malme-3M
MDA-MB-231 = tested on: MDA-MB-231
LOX IMVI = tested on: LOX IMVI
EKVX = tested on: EKVX
HOP-92 = tested on: HOP-92
RPMI-8226 = tested on: RPMI-8226
NCI/ADR-RES = tested on: NCI/ADR-RES
Hs-578T = tested on: Hs-578T
OVCAR-8 = tested on: OVCAR-8
SW-620 = tested on: SW-620
ACHN = tested on: ACHN
U-251 = tested on: U-251
SK-MEL-28 = tested on: SK-MEL-28
A498 = tested on: A498
SK-MEL-5 = tested on: SK-MEL-5
RXF 393 = tested on: RXF 393
HOP-62 = tested on: HOP-62
SF-268 = tested on: SF-268
SN12C = tested on: SN12C
HL-60 = tested on: HL-60

Measured: GI50

Cc1nc(SCC(N)=O)c2sc(=S)n(-c3ccccc3)c2n1
inactive: Malme-3M > 10 µM | MDA-MB-231 > 10 µM | LOX IMVI > 10 µM | EKVX > 10 µM | HOP-92 > 10 µM | RPMI-8226 > 10 µM | NCI/ADR-RES > 10 µM | Hs-578T > 10 µM | OVCAR-8 > 10 µM | SW-620 > 10 µM | ACHN > 10 µM | U-251 > 10 µM | SK-MEL-28 > 10 µM | A498 > 10 µM | SK-MEL-5 > 10 µM | RXF 393 > 10 µM | HOP-62 > 10 µM | SF-268 > 10 µM | SN12C > 10 µM | HL-60 > 10 µM

CCC(=O)N/S(=N/S(=O)(=O)c1ccccc1)C(Cl)(Cl)Cl (stereo not given)
inactive: Malme-3M > 100 µM | MDA-MB-231 > 100 µM | LOX IMVI > 100 µM | EKVX > 100 µM | HOP-92 > 100 µM | RPMI-8226 > 100 µM | NCI/ADR-RES > 100 µM | Hs-578T > 100 µM | OVCAR-8 > 100 µM | SW-620 > 100 µM | ACHN > 100 µM | U-251 > 100 µM | SK-MEL-28 > 100 µM | A498 > 100 µM | SK-MEL-5 > 100 µM | RXF 393 > 100 µM | HOP-62 > 100 µM | SF-268 > 100 µM | SN12C > 100 µM | HL-60 > 100 µM

COc1ccccc1C(=O)NCC1CCCN2CCCCC12 (stereo not given)
inactive: Malme-3M > 100 µM | MDA-MB-231 > 100 µM | LOX IMVI > 100 µM | EKVX > 100 µM | HOP-92 > 100 µM | RPMI-8226 > 100 µM | NCI/ADR-RES > 100 µM | Hs-578T > 100 µM | OVCAR-8 > 100 µM | SW-620 > 100 µM | ACHN > 100 µM | U-251 > 100 µM | SK-MEL-28 > 100 µM | A498 > 100 µM | SK-MEL-5 > 100 µM | RXF 393 > 100 µM | HOP-62 > 100 µM | SF-268 > 100 µM | SN12C > 100 µM | HL-60 > 100 µM

O=C1CC(CC(OCc2ccccc2)C(COCc2ccccc2)OCc2ccccc2)CC(=O)N1 (stereo not given)
inactive: Malme-3M 19.9 µM | MDA-MB-231 50.2 µM | LOX IMVI 34.3 µM | EKVX 19.7 µM | HOP-92 39.2 µM | RPMI-8226 34.5 µM | NCI/ADR-RES 24.7 µM | Hs-578T 44.2 µM | OVCAR-8 31.9 µM | SW-620 50.6 µM | ACHN 30.3 µM | U-251 32.5 µM | SK-MEL-28 63.4 µM | A498 30.3 µM | SK-MEL-5 15.4 µM | RXF 393 30.1 µM | HOP-62 39.8 µM | SF-268 58.1 µM | SN12C 44.6 µM | HL-60 28 µM

Nc1cc2c(nc3c4ccccc4c(N)cc3[n+]2-c2cccc3ccccc23)c2ccccc12.Nc1cc2c(nc3c4ccccc4ccc3[n+]2-c2cccc3ccccc23)c2ccccc12
inactive: Malme-3M 1.6 µM | LOX IMVI 1.97 µM | EKVX 1.61 µM | HOP-92 1.2 µM | NCI/ADR-RES 8.18 µM | Hs-578T 1.17 µM | SW-620 1.55 µM | ACHN 2.18 µM | SK-MEL-28 7.06 µM | A498 3.48 µM | SK-MEL-5 1.7 µM | RXF 393 2.45 µM | HOP-62 2.81 µM | SF-268 3.37 µM | SN12C 2.49 µM | HL-60 1.41 µM
active: MDA-MB-231 0.276 µM | RPMI-8226 0.146 µM | OVCAR-8 0.714 µM | U-251 0.341 µM

O=C(O)c1ccc(NS(=O)(=O)Cc2ccccc2)cc1
inactive: Malme-3M > 100 µM | MDA-MB-231 > 100 µM | LOX IMVI > 100 µM | EKVX > 100 µM | HOP-92 > 100 µM | RPMI-8226 > 100 µM | NCI/ADR-RES > 100 µM | Hs-578T > 100 µM | OVCAR-8 > 100 µM | SW-620 > 100 µM | ACHN > 100 µM | U-251 > 100 µM | SK-MEL-28 > 100 µM | A498 > 100 µM | SK-MEL-5 > 100 µM | RXF 393 > 100 µM | HOP-62 > 100 µM | SF-268 > 100 µM | SN12C > 100 µM | HL-60 > 100 µM

Nc1n[nH]c(N)n1 [GUANAZOLE]
inactive: Malme-3M 9100 µM | MDA-MB-231 > 10000 µM | LOX IMVI 2960 µM | EKVX 7350 µM | HOP-92 5190 µM | RPMI-8226 4670 µM | NCI/ADR-RES 2580 µM | Hs-578T > 10000 µM | OVCAR-8 3400 µM | SW-620 > 9380 µM | ACHN 1890 µM | U-251 3800 µM | SK-MEL-28 > 6150 µM | A498 5470 µM | SK-MEL-5 3940 µM | RXF 393 6820 µM | HOP-62 2360 µM | SF-268 5740 µM | SN12C 4930 µM | HL-60 1420 µM
